Assay results: patent publication US20250325687A1, “CONJUGATE COMPRISING TOLL-LIKE RECEPTOR AGONIST” (MABSOFT THERAPEUTICS (SHANGHAI) CO., LTD., priority 2022, published 2025)
pEC50: −log10 of the molar value.

Columns and labels:
Assay type in all cases: cell-based
[1] = target: T1, hTLR7 (human Toll-like receptor 7) (Homo sapiens, UniProt Q9NYK1); experiment: hTLR7 cell assay (HEK-Blue hTLR7 reporter cells); details: 24 hours, OD 650 nm
T1 construct: host or cells: HEK-Blue hTLR7 (HEK293-derived reporter cells)
T1 sequence (Q9NYK1 27-1049): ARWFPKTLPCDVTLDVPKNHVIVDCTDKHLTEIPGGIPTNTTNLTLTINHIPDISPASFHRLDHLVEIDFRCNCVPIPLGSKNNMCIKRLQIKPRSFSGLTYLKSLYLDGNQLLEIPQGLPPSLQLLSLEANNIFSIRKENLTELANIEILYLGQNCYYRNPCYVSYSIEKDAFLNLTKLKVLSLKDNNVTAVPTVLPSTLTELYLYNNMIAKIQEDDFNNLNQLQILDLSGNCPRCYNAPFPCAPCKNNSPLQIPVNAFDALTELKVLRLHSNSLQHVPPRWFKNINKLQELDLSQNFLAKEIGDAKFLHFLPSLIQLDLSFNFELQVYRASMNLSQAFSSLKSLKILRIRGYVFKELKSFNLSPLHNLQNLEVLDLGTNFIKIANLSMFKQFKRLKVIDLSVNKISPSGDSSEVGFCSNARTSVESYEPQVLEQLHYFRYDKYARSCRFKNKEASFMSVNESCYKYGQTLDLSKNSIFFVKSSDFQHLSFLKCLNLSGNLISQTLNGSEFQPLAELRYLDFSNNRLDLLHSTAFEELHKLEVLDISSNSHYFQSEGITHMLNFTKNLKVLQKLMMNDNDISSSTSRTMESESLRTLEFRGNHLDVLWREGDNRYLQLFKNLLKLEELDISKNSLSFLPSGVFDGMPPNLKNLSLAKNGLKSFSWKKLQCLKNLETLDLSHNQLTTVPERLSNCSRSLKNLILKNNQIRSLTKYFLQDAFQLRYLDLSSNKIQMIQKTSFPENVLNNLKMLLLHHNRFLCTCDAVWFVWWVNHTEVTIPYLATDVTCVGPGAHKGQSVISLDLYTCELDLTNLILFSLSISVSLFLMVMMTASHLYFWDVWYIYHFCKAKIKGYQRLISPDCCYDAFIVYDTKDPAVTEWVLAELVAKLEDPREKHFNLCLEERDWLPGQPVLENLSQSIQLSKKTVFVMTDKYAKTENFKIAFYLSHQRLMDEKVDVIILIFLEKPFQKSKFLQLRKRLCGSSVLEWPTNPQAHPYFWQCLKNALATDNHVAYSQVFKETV
Description: (§1) The payload compounds of Formula (II′) were assayed to evaluate their agonistic activity on hTLR7 (human Toll-like receptor 7) and hTLR8 (human Toll-like receptor 8). Reporter cells lines (HEK-Blue hTLR7 and HEK-Blue hTLR8) were obtained from InvivoGen. Cells were cryopreserved in liquid nitrogen per supplier's instruction. Upon test, the cells were thawed, passaged and cultured in the growth media of DMEM supplemented with 10% fetal bovine serum, 1×NEAA, 1 mM Pyruvate, 2 mM glutamine, […] in the presence of the following antibiotics, as shown as Table 1. Test compounds (at desired concentrations diluted) were added to the 96-well assay plate, 0.5 μL per well. Reporter cells were harvested from the tissue culture flasks by incubation in PBS at 37° C. for two minutes after the media in the flask is removed and cells rinsed with PBS. Cells were counted and diluted in the HEK-Blue Detection media at 50000 cells/mL and incubated for 24 hours at 37° C., in a 5% CO2 humidified incubator. Then 20 μL of cell supernatant were added to the assay plate containing the 180 µL of QUANTI-Blue, incubated for 1 hour at 37° C. Optical density at 650 nm was analyzed using an Envision (Perkin Elmer) plate reader.

[2] = target: T2, hTLR8 (human Toll-like receptor 8) (Homo sapiens, UniProt Q9NR97); experiment: hTLR8 cell assay (HEK-Blue hTLR8 reporter cells); details: 24 hours, OD 650 nm
T2 construct: host or cells: HEK-Blue hTLR8 (HEK293-derived reporter cells)
T2 sequence (Q9NR97 27-1041): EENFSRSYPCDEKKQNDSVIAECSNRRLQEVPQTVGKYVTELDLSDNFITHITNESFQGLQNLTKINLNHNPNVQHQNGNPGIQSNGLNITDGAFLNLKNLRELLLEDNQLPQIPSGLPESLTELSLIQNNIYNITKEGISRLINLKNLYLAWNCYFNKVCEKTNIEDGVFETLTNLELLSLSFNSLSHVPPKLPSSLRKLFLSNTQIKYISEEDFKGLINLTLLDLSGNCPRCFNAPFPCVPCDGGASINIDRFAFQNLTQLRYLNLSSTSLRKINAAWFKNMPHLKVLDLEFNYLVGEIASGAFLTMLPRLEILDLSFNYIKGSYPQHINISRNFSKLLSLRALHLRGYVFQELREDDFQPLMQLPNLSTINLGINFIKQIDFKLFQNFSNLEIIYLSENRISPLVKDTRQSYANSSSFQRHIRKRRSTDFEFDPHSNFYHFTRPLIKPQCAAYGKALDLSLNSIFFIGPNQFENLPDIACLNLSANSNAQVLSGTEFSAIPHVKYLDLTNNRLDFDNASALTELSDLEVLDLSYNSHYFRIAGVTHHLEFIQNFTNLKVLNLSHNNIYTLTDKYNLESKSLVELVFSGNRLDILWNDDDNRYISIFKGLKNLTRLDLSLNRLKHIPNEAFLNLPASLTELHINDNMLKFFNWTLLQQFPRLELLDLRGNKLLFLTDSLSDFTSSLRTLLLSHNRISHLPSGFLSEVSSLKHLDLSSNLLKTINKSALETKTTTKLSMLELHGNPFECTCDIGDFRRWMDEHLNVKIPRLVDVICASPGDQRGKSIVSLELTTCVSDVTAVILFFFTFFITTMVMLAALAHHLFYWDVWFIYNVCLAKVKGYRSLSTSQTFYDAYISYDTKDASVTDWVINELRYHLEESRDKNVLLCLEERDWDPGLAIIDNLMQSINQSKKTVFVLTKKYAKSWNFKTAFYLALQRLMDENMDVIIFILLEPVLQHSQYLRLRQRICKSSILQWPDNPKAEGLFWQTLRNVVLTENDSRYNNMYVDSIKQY
Description: as §1

[3] = system: human PBMC (human peripheral blood mononuclear cells); experiment: PBMC screening assay: induction of TNF-α production; details: human PBMC, 24 hours, TNF-α by ELISA; class symbols; read-out: EC50 (μM) TNF-α (hPBMC)
Description: The payload compounds of Formula (II′) were assayed to evaluate the induction of TNF-α production in human PBMC (human peripheral blood mononuclear cells).
Human peripheral blood mononuclear cells (PBMC) were obtained from Allcells. […] PBMC were incubated for 24 hours at 37° C. in a 5% CO2 humidified incubator. The following day PBMC plates were centrifuged at 500×g for 5 minutes and the growth media was removed. 200 μL of compound prepared in growth media at a series of diluted concentrations ranging from 2.54 nM to 50 μM were added to PBMC in duplicate and incubated for 24 hours at 37° C. in a 5% CO2 incubator. Prior to supernatant harvest, cells were spun at 500×g for 5 minutes to remove cell debris. TNF-α activity was assessed in the supernatant by ELISA (Elabscience) per the manufacturer's instructions. Optical density at 450 nm (ELISA) was analyzed using a plate reader.

Row | SMILES | pEC50 [1] | pEC50 [2] | EC50 [3] [µM]
1 | CCOCc1nc2c(N)nc3cc(Cc4ccc(CCN)cc4)ccc3c2n1CCNS(C)(=O)=O [Compound 34, N-(2-(4-amino-7-(4-(2-aminoethyl)benzyl)-2-(ethoxymethyl)-1H-imidazo[4,5-c]quinolin-1-yl)ethyl)methanesulfonamide] | < 5.00 | < 4.70 | 
2 | CCOCc1nc2c(N)nc3cc(Cc4ccc(CC(N)=O)cc4)ccc3c2n1CCNS(C)(=O)=O [Compound 35, 2-(4-((4-amino-2-(ethoxymethyl)-1-(2-(methylsulfonamido)ethyl)-1H-imidazo[4,5-c]quinolin-7-yl)methyl)phenyl)acetamide] | 5.00 to 6.00 | < 4.70 | 
3 | CCOCc1nc2c(N)nc3cc(Cc4ccccc4)ccc3c2n1CC(C)(C)NCCCN [Compound 36, NJ-(1-(4-amino-7-benzyl-2-(ethoxymethyl)-1H-imidazo[4,5-c]quinolin-1-yl)-2-methylpropan-2-yl)propane-1,3-diamine] | < 5.00 | < 4.70 | 
4 | CCOCc1nc2c(N)nc3cc(Cc4ccccc4)ccc3c2n1CC(C)(C)NCCN [Compound 37, N1-(1-(4-amino-7-benzyl-2-(ethoxymethyl)-1H-imidazo[4,5-c]quinolin-1-yl)-2-methylpropan-2-yl)ethane-1,2-diamine] | < 5.00 | < 4.70 | 
5 | CCOCc1nc2c(N)nc3cc(Cc4ccccc4)ccc3c2n1CC(C)(C)N [Compound 38, 1-(2-amino-2-methylpropyl)-7-benzyl-2-(ethoxymethyl)-1H-imidazo[4,5-c]quinolin-4-amine] | < 5.00 | < 4.70 | 
6 | CCOCc1nc2c(N)nc3cc(Cc4ccccc4)ccc3c2n1CCCCN [Compound 39, 1-(4-aminobutyl)-7-benzyl-2-(ethoxymethyl)-1H-imidazo[4,5-c]quinolin-4-amine] | < 5.00 | 4.70 to 5.30 | 
7 | CCOCc1nc2c(N)nc3cc(Cc4ccccc4)ccc3c2n1CC1CC(CN)C1 (centres unmarked) [Compound 40, 1-((3-(aminomethyl)cyclobutyl)methyl)-7-benzyl-2-(ethoxymethyl)-1H-imidazo[4,5-c]quinolin-4-amine] | 5.00 to 6.00 | < 4.70 | 
8 | CCCC(C)c1nc2c(N)nc3cc(Cc4ccc(CCN)cc4)ccc3c2n1Cc1ccccc1 (centres unmarked) [Compound 41, 7-(4-(2-aminoethyl)benzyl)-1-benzyl-2-(pentan-2-yl)-1H-imidazo[4,5-c]quinolin-4-amine] | 5.00 to 6.00 | 4.70 to 5.30 | 
9 | CCCC(C)c1nc2c(N)nc3cc(Cc4ccccc4)ccc3c2n1Cc1ccc(CN)cc1 (centres unmarked) [Compound 42, 1-(4-(aminomethyl)benzyl)-7-benzyl-2-(pentan-2-yl)-1H-imidazo[4,5-c]quinolin-4-amine] | 5.00 to 6.00 | > 5.30 | 
10 | CCOCc1nc2c(N)nc3cc(Cc4ccccc4)ccc3c2n1Cc1ccc(CN)cc1 [Compound 43] | > 6.00 | 4.70 to 5.30 | 
11 | CCOCc1nc2c(N)nc3cc(Cc4ccc(CCN)cc4)ccc3c2n1Cc1ccc(CO)cc1 [Compound 45, (4-((4-amino-7-(4-(2-aminoethyl)benzyl)-2-(ethoxymethyl)-1H-imidazo[4,5-c]quinolin-1-yl)methyl)phenyl) methanol] | 5.00 to 6.00 | < 4.70 | 
12 | CCOCc1nc2c(N)nc3cc(Cc4ccccc4)ccc3c2n1CCC(O)C(F)(F)F (centres unmarked) [Compound 46, 4-(4-amino-7-benzyl-2-(ethoxymethyl)-1H-imidazo[4,5-c]quinolin-1-yl)-1,1,1-trifluorobutan-2-ol] | < 5.00 | < 4.70 | 
13 | CCOCc1nc2c(N)nc3cc(Cc4ccc(CCN)cc4)ccc3c2n1CC1(O)CC1 [Compound 47, 1-((4-amino-7-(4-(2-aminoethyl)benzyl)-2-(ethoxymethyl)-1H-imidazo[4,5-c]quinolin-1-yl)methyl)cyclopropan-1-ol] | < 5.00 | < 4.70 | 
14 | CCCC(C)c1nc2c(N)nc3cc(Cc4ccc(CCN)cc4)ccc3c2n1CC(C)(C)OC (centres unmarked) [Compound 48, 7-(4-(2-aminoethyl)benzyl)-1-(2-methoxy-2-methylpropyl)-2-(pentan-2-yl)-1H-imidazo[4,5-c]quinolin-4-amine] | < 5.00 | 4.70 to 5.30 | 
15 | CCOCc1nc2c(N)nc3cc(Cc4ccc(CCN)cc4)ccc3c2n1C[C@@H]1[C@@H](CO)C1(F)F [Compound 49, ((1S,3S)-3-((4-amino-7-(4-(2-aminoethyl)benzyl)-2-(ethoxymethyl)-1H-imidazo[4,5-c]quinolin-1-yl)methyl)-2,2-difluorocyclopropyl)methanol] | < 5.00 | 4.70 to 5.30 | 
16 | CCOCc1nc2c(N)nc3cc(Cc4ccc(CCN)cc4)ccc3c2n1CC(C)(C)OCCO [Compound 72, 2-((1-(4-amino-7-(4-(2-aminoethyl)benzyl)-2-(ethoxymethyl)-1H-imidazo[4,5-c]quinolin-1-yl)-2-methylpropan-2-yl)oxy)ethan-1-ol] | > 6.00 | < 4.70 | 
17 | CCOCc1nc2c(N)nc3cc(Cc4ccc(CC(N)=O)cc4)ccc3c2n1CC(C)(C)O [Compound 73, 2-(4-((4-amino-2-(ethoxymethyl)-1-(2-hydroxy-2-methylpropyl)-1H-imidazo[4,5-c]quinolin-7-yl)methyl)phenyl)acetamide] | > 6.00 | < 4.70 | 
18 | CCOCc1nc2c(N)nc3cc(Cc4ccc(CNC(=O)CO)s4)ccc3c2n1CC(C)(C)O [Compound 169] |  |  | > 0.64
